Among the data in patent US9850283B2, “Macrocyclic inhibitors of the PD-1/PD-L1 and CD80(B7-1)/PD-L1 protein/protein interactions” (BRISTOL-MYERS SQUIBB COMPANY, priority 2013, dated 2017) are IC50 values, retold here.

As a reminder, the IC50 is the concentration that inhibits the measured activity by half.

Experiment [1] has as its target T1, Human PD-L1/PD-1 (Homo sapiens, UniProt Q9NZQ7).
T1 construct: made in house; host or cells: HEK293T
Description: HTRF PD-1-Ig/PD-L1-His binding assay (human PD-L1). The conditions noted are these: cluster symbol; read-out: HTRF IC50 cluster. In short, it runs like this:
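HTRF read-out: Eu cryptate anti-Ig mAb 1 nM final, APC anti-His mAb 20 nM final, added over the binding reaction. Proteins were PD-1-Ig and PD-L1-His ectodomain fusions. Buffer was dPBS, 0.1% BSA, 0.05% Tween-20.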
A general note: Time-resolved FRET reads energy transfer from a long-lived donor to a nearby acceptor.

Experiment [2] addresses T2, LK35.2-hPD-L1 cells / PE-labeled PD-1-Ig (Homo sapiens, UniProt Q9NZQ7).
T2 construct: expressed in transfected cells; host or cells: LK35.2 mouse B cell line
The experiment is described as follows: LK35.2-hPD-L1 cell binding high-content screening assay. The conditions noted are these: cluster symbol, read-out: CBA IC50 cluster. The experiment is classed as cell-based. The gist of the method:
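Binding of PE-conjugated human PD-1-Ig (1 nM final) to human PD-L1 stably expressed on a mouse B-cell line (LK35.2) was measured by high-content imaging after washes. Compound and labeled PD-1-Ig were co-incubated 1 h at 37 °C with cells in RPMI/10% FCS.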

The mark [3] stands for this setting: cell binding assay, cell line not given.
Setting [4] is: cell line of CBA not given (LK35.2-hPD-L1 or 293T-hPD-L1).

Where two headings read alike, the source gives them in different places. Starred links: 1 amine or outer side, 2 acyl side, 3 side chain; linkers in the order of their positions; H or OH if unused. Positions of bridges follow the written chain, without caps; N, C: chain ends. Non-standard residues stand in square brackets, D forms with d. Residues, ends and D or L forms follow the SMILES beside them. ξ: configuration not given here. *: point of attachment. Phe(3,4,5-F3) = N[C@@H](Cc1cc(F)c(F)c(F)c1)C(=O)O; Bip = N[C@@H](Cc1ccc(-c2ccccc2)cc1)C(=O)O; Phe(4-Cl) = N[C@@H](Cc1ccc(Cl)cc1)C(=O)O; Phe(4-Me) = Cc1ccc(C[C@H](N)C(=O)O)cc1; Bta = N[C@@H](Cc1csc2ccccc12)C(=O)O; Hyp = O=C(O)[C@@H]1C[C@@H](O)CN1; NMeF = CN[C@@H](Cc1ccccc1)C(=O)O; X4 = O=C([C@H]1COCCN1[*:1])[*:2]; dHyp = O=C(O)[C@H]1C[C@H](O)CN1; NMeNle = CCCC[C@H](NC)C(=O)O; NMeS = CN[C@@H](CO)C(=O)O; NMeA = CN[C@@H](C)C(=O)O; Orn = NCCC[C@H](N)C(=O)O; Dab = NCC[C@H](N)C(=O)O; Dap = NC[C@H](N)C(=O)O; Bn = c1ccc(C*)cc1; ξC = NC(CS)C(=O)O; Sar = CNCC(=O)O

T2 sequence (Q9NZQ7 19-290): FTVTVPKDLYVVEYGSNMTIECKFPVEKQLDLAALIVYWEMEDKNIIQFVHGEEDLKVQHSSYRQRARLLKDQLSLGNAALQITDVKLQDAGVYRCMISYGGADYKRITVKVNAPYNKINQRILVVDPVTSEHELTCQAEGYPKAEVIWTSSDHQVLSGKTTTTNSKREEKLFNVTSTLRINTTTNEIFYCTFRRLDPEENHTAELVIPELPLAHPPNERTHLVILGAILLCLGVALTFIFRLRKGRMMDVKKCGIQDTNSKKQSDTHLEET
T1 sequence (Q9NZQ7 with tags, fused parts or gaps): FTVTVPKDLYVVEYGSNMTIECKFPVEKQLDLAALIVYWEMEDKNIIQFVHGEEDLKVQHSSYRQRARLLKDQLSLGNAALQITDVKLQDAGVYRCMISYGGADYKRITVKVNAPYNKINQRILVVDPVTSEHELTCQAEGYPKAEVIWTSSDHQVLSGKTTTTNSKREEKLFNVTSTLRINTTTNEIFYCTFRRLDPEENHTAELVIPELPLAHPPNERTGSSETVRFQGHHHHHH

Turning to `CCCC[C@H]1C(=O)N(C)[C@@H](CCCC)C(=O)NCC(=O)N[C@H](C(=O)NCC(N)=O)CSCC(=O)N[C@@H](Cc2ccc(O)cc2)C(=O)N(C)[C@@H](C)C(=O)N[C@@H](CC(N)=O)C(=O)N2CCC[C@H]2C(=O)N[C@@H](Cc2c[nH]cn2)C(=O)N[C@@H](CCC(N)=O)C(=O)N2C[C@H](O)C[C@H]2C(=O)N[C@@H](Cc2c[nH]c3ccccc23)C(=O)N[C@@H](CO)C(=O)N[C@@H](Cc2c[nH]c3ccccc23)C(=O)N1C` [Example 5125] ({CH2CO}-Y[NMeA]NPHQ[Hyp]WSW[NMeNle][NMeNle]GCG-NH2; thioether N-14), the half-inhibitory concentration (IC50) in experiment [1] was 0.385 to 6.74 nM; in experiment [2] (setting [3]) it was 4.78 to 72.9 nM.
In the same order, the values of `CCCC[C@H]1C(=O)N(C)[C@@H](CCCC)C(=O)N[C@@H](CO)C(=O)NC(C(=O)NCC(N)=O)CSCC(=O)N[C@@H](Cc2ccc(O)cc2)C(=O)N(C)[C@@H](C)C(=O)N[C@@H](CC(N)=O)C(=O)N2CCC[C@H]2C(=O)N[C@@H](Cc2cnc[nH]2)C(=O)N[C@@H](CC(C)C)C(=O)N2CCC[C@H]2C(=O)N[C@@H](Cc2c[nH]c3ccccc23)C(=O)N[C@@H](CO)C(=O)N[C@@H](Cc2csc3ccccc23)C(=O)N1C` (stereo partly shown) [Example 9027] ({CH2CO}-Y[NMeA]NPHLPWS[Bta][NMeNle][NMeNle]S[ξC]G-NH2; thioether N-14) are 0.385 to 6.74 nM and 0.158 to 4.71 nM.
The corresponding values for `CCCC[C@H]1C(=O)N(C)[C@@H](CCCC)C(=O)N[C@@H](C)C(=O)N[C@H](C(=O)NCC(N)=O)CSCC(=O)N[C@@H](Cc2ccc(O)cc2)C(=O)N(C)[C@@H](C)C(=O)N[C@@H](CC(N)=O)C(=O)N2CCC[C@H]2C(=O)N[C@@H](Cc2cnc[nH]2)C(=O)N[C@@H](CC(C)C)C(=O)N2C[C@H](O)C[C@H]2C(=O)N[C@@H](Cc2c[nH]c3ccccc23)C(=O)N[C@@H](CCN)C(=O)N[C@@H](Cc2c[nH]c3ccccc23)C(=O)N1C` [Example 5035] are 0.385 to 6.74 nM and 0.158 to 4.71 nM.
In the same order, the values of `CCCC[C@H]1C(=O)N(C)[C@@H](CCCC)C(=O)N[C@@H](CCCNC(=N)N)C(=O)N[C@H](C(=O)NCC(N)=O)CSCC(=O)N[C@@H](Cc2ccc(Cl)cc2)C(=O)N(C)[C@@H](C)C(=O)N[C@@H](CC(N)=O)C(=O)N2CCC[C@H]2C(=O)N[C@@H](Cc2cnc[nH]2)C(=O)N[C@@H](CC(C)C)C(=O)N2C[C@H](O)C[C@H]2C(=O)N[C@@H](Cc2c[nH]c3ccccc23)C(=O)N[C@@H](CO)C(=O)N[C@@H](Cc2c[nH]c3ccccc23)C(=O)N1C` [Example 7054] ({CH2CO}-[Phe(4-Cl)][NMeA]NPHL[Hyp]WSW[NMeNle][NMeNle]RCG-NH2; thioether N-14) are 0.385 to 6.74 nM and 0.158 to 4.71 nM.
Regarding `CCCC[C@H]1C(=O)N(C)[C@@H](CCCC)C(=O)N[C@@H](CC(C)C)C(=O)N[C@H](C(=O)NCC(N)=O)CSCC(=O)N[C@@H](Cc2ccc(O)cc2)C(=O)N(C)[C@@H](C)C(=O)N[C@@H](CC(N)=O)C(=O)N2CCC[C@H]2C(=O)N[C@@H](CN)C(=O)N[C@@H](CC(C)C)C(=O)N2CCC[C@H]2C(=O)N[C@@H](Cc2c[nH]c3ccccc23)C(=O)N[C@@H](CCN)C(=O)N[C@@H](Cc2c[nH]c3ccccc23)C(=O)N1C` [Example 6040] ({CH2CO}-Y[NMeA]NP[Dap]LPW[Dab]W[NMeNle][NMeNle]LCG-NH2; thioether N-14), the IC50 lay within 0.385 to 6.74 nM in experiment [1] and 0.158 to 4.71 nM in experiment [2] (setting [3]).
The corresponding values for `CCCC[C@H]1C(=O)N(C)[C@@H](CCSC)C(=O)N[C@@H](CCCNC(=N)N)C(=O)NC(C(=O)NCC(N)=O)CSCC(=O)N[C@@H](Cc2ccc(O)cc2)C(=O)N(C)[C@@H](C)C(=O)N[C@@H](CC(N)=O)C(=O)N2CCC[C@H]2C(=O)N[C@@H](Cc2cnc[nH]2)C(=O)N[C@@H](CC(C)C)C(=O)N2C[C@H](O)C[C@H]2C(=O)N[C@@H](Cc2c[nH]c3ccccc23)C(=O)N[C@@H](CO)C(=O)N[C@@H](Cc2c[nH]c3ccccc23)C(=O)N1C` (stereo partly shown) [Example 9024] are 0.385 to 6.74 nM and 0.158 to 4.71 nM.
Regarding `CCCC[C@H]1C(=O)N(C)CC(=O)N[C@@H](CC(=O)O)C(=O)N[C@@H](C(C)C)C(=O)N[C@@H](Cc2ccc(C)cc2)C(=O)N[C@@H](Cc2ccc(O)cc2)C(=O)N(C)CC(=O)N[C@@H](Cc2c[nH]c3ccccc23)C(=O)N[C@@H](Cc2ccc(O)cc2)C(=O)N[C@@H](CC(C)C)C(=O)N[C@H](C(=O)NCC(N)=O)CSCC(=O)N[C@@H](Cc2ccccc2)C(=O)N(C)[C@@H](Cc2ccccc2)C(=O)N1C` [Example 3135] ({CH2CO}-F[NMeF][NMeNle][Sar]DV[Phe(4-Me)]Y[Sar]WYLCG-NH2; thioether N-13), the figures for the IC50 in experiment [1] and in experiment [2] (setting [4]) were more than 30.5 nM and more than 74.3 nM, respectively.
`CCCC[C@H]1C(=O)N(C)[C@@H](CCCC)C(=O)N[C@@H](Cc2cnc[nH]2)C(=O)N[C@H](C(=O)NCC(N)=O)CSCC(=O)N[C@@H](Cc2ccccc2)C(=O)N(C)[C@@H](C)C(=O)N[C@@H](CC(N)=O)C(=O)N2CCC[C@H]2C(=O)N[C@@H](Cc2cnc[nH]2)C(=O)N[C@@H](CC(C)C)C(=O)N(C)CC(=O)N[C@@H](Cc2c[nH]c3ccccc23)C(=O)N[C@@H](CO)C(=O)N[C@@H](Cc2c[nH]c3ccccc23)C(=O)N1C` [Example 5013] ({CH2CO}-F[NMeA]NPHL[Sar]WSW[NMeNle][NMeNle]HCG-NH2; thioether N-14): the IC50 is more than 30.5 nM in experiment [1] and more than 74.3 nM in experiment [2] (setting [3]).
In the case of `CCCC[C@H]1C(=O)N(C)[C@@H](CCCC)C(=O)N[C@@H](CCCNC(=N)N)C(=O)N[C@H](C(=O)NCC(N)=O)CSCC(=O)N[C@@H](Cc2ccccc2)C(=O)N(C)[C@@H](C)C(=O)N[C@@H](CC(N)=O)C(=O)N2CCC[C@H]2C(=O)N[C@@H](Cc2cnc[nH]2)C(=O)N[C@@H](CC(C)C)C(=O)N(C)CC(=O)N[C@@H](Cc2ccc(-c3ccccc3)cc2)C(=O)N[C@@H](CO)C(=O)N[C@@H](Cc2c[nH]c3ccccc23)C(=O)N1C` [Example 1007] ({CH2CO}-F[NMeA]NPHL[Sar][Bip]SW[NMeNle][NMeNle]RCG-NH2; thioether N-14), the IC50 is more than 30.5 nM in experiment [1] and more than 74.3 nM in experiment [2] (setting [4]).
Regarding `CCCC[C@H]1C(=O)N2C[C@@H](O)C[C@@H]2C(=O)N[C@@H](CC(N)=O)C(=O)N[C@@H](C(C)C)C(=O)N(C)[C@@H](Cc2ccccc2)C(=O)N[C@@H](CCCN)C(=O)N2CCOC[C@@H]2C(=O)N[C@@H](Cc2c[nH]c3ccccc23)C(=O)N[C@@H](Cc2ccc(O)cc2)C(=O)N[C@@H](CCCN)C(=O)N[C@H](C(=O)NCC(N)=O)CSCC(=O)N[C@@H](Cc2cc(F)c(F)c(F)c2)C(=O)N(C)[C@@H](Cc2ccccc2)C(=O)N1C` [Example 3607] ({CH2CO}-[Phe(3,4,5-F3)][NMeF][NMeNle][dHyp]NV[NMeF][Orn][X4]WY[Orn]CG-NH2; thioether N-13), the IC50 was in the range of 0.385 to 6.74 nM in experiment [1] and 0.158 to 4.71 nM in experiment [2] (setting [3]).
In the same order, the values of `CCCC[C@H]1C(=O)N(C)[C@@H](COCc2ccccc2)C(=O)N[C@@H](CCCNC(=N)N)C(=O)N[C@H](C(=O)NCC(N)=O)CSCC(=O)N[C@@H](Cc2ccccc2)C(=O)N(C)[C@@H](C)C(=O)N[C@@H](CC(N)=O)C(=O)N2CCC[C@H]2C(=O)N[C@@H](Cc2cnc[nH]2)C(=O)N[C@@H](CC(C)C)C(=O)N(C)CC(=O)N[C@@H](Cc2c[nH]c3ccccc23)C(=O)N[C@@H](CO)C(=O)N[C@@H](Cc2c[nH]c3ccccc23)C(=O)N1C` [Example 6016] ({CH2CO}-F[NMeA]NPHL[Sar]WSW[NMeNle][NMeS](Bn)RCG-NH2; thioether N-14) are 6.76 to 30.3 nM and 4.78 to 72.9 nM.
